The assay deals with HT-29 cells. Nature of the assay: HT-29 necroptosis cell viability assay (TNF-α/SMAC mimetic/zVAD-FMK, CellTiter-Glo). As to conditions: Homo sapiens, HT-29, HT-29 necroptosis cell viability assay; class symbols for IC50; read-out: Activity. Type of assay: cell-based. The method in brief: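 HT-29 cells (~5,000/well, overnight) in FBS-free McCoy's 5A with TNF-α 10 ng/ml, SMAC mimetic 6 μM and zVAD-FMK 10 μM plus 10-point 1:3 compound titration, 20 h at 37°C. ATP measured by CellTiter-Glo luminescence; IC50 as geometric mean of duplicates.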

Some results are limits rather than exact numbers.

Take `Cn1nccc1Cc1ccc(-n2ncn(Cc3c(F)cccc3F)c2=O)cc1` [Example 545, 4-(2,6-difluorobenzyl)-2-(4-((1-methyl-1H-pyrazol-5-yl)methyl)phenyl)-2,4-dihydro-3H-1,2,4-triazol-3-one]: the IC50 was less than 100 nM. Then `Cc1nc(C2=CCCC2)sc1Oc1ccc(-n2ncn(Cc3c(F)cccc3F)c2=O)cc1` [Example 546, 2-(4-((2-(cyclopent-1-en-1-yl)-4-methylthiazol-5-yl)oxy)phenyl)-4-(2,6-difluorobenzyl)-2,4-dihydro-3H-1,2,4-triazol-3-one], with less than 100 nM; and `Cc1nc(C=C2COC2)sc1Oc1ccc(-n2ncn(Cc3c(F)cccc3F)c2=O)cc1` [Example 547, 4-(2,6-difluorobenzyl)-2-(4-((4-methyl-2-(oxetan-3-ylidenemethyl)thiazol-5-yl)oxy)phenyl)-2,4-dihydro-3H-1,2,4-triazol-3-one], with less than 100 nM. The value for `O=c1n(Cc2c(F)cccc2F)cnn1-c1ccc(Oc2cc(C3=CCOCC3)ncc2F)c(F)c1` [Example 548, 4-(2,6-difluorobenzyl)-2-(4-((2-(3,6-dihydro-2H-pyran-4-yl)-5-fluoropyridin-4-yl)oxy)-3-fluorophenyl)-2,4-dihydro-3H-1,2,4-triazol-3-one] was less than 100 nM; that for `Cc1nc(C2CCNC2)sc1Oc1ccc(-n2ncn(Cc3c(F)cccc3F)c2=O)cc1` (stereo not shown) [Example 549, 4-(2,6-difluorobenzyl)-2-(4-((4-methyl-2-(pyrrolidin-3-yl)thiazol-5-yl)oxy)phenyl)-2,4-dihydro-3H-1,2,4-triazol-3-one] was less than 100 nM. The value for `Cc1nc(C2CCOC2)sc1Oc1ccc(-n2ncn(Cc3c(F)cccc3F)c2=O)cc1` (stereo not shown) [Example 550, 4-(2,6-difluorobenzyl)-2-(4-((4-methyl-2-(tetrahydrofuran-3-yl)thiazol-5-yl)oxy)phenyl)-2,4-dihydro-3H-1,2,4-triazol-3-one] was less than 100 nM; that for `Cc1nc(C2CCOCC2)sc1Oc1ccc(-n2ncn(Cc3c(F)cccc3F)c2=O)cc1` [Example 551, 4-(2,6-difluorobenzyl)-2-(4-((4-methyl-2-(tetrahydro-2H-pyran-4-yl)thiazol-5-yl)oxy)phenyl)-2,4-dihydro-3H-1,2,4-triazol-3-one] was less than 100 nM. As to `Cc1nc(CC2COC2)sc1Oc1ccc(-n2ncn(Cc3c(F)cccc3F)c2=O)cc1` [Example 552, 4-(2,6-difluorobenzyl)-2-(4-((4-methyl-2-(oxetan-3-ylmethyl)thiazol-5-yl)oxy)phenyl)-2,4-dihydro-3H-1,2,4-triazol-3-one], the IC50 was less than 100 nM. The value for `O=c1n(Cc2c(F)cccc2F)cnn1-c1ccc(Oc2cc(C3CCOCC3)ncc2F)c(F)c1` [Example 553, 4-(2,6-difluorobenzyl)-2-(3-fluoro-4-((5-fluoro-2-(tetrahydro-2H-pyran-4-yl)pyridin-4-yl)oxy)phenyl)-2,4-dihydro-3H-1,2,4-triazol-3-one] was 100 to 1000 nM; that for `Cc1nc(C2CCN(C)C2)sc1Oc1ccc(-n2ncn(Cc3c(F)cccc3F)c2=O)cc1` (stereo not shown) [Example 554, 4-(2,6-difluorobenzyl)-2-(4-((4-methyl-2-(1-methylpyrrolidin-3-yl)thiazol-5-yl)oxy)phenyl)-2,4-dihydro-3H-1,2,4-triazol-3-one] was less than 100 nM. The value for `CC1(CN)CN(c2cc(Oc3ccc(-n4ncn(Cc5c(F)cccc5F)c4=O)cc3F)c(F)cn2)C1` [Example 555, 2-(4-((2-(3-(aminomethyl)-3-methylazetidin-1-yl)-5-fluoropyridin-4-yl)oxy)-3-fluorophenyl)-4-(2,6-difluorobenzyl)-2,4-dihydro-3H-1,2,4-triazol-3-one] was less than 100 nM. With `C[C@H](O)C1CN(c2cc(Oc3ccc(-n4ncn(Cc5c(F)cccc5F)c4=O)cc3F)c(F)cn2)C1` [Example 556, (S)-4-(2,6-difluorobenzyl)-2-(3-fluoro-4-((5-fluoro-2-(3-(1-hydroxyethyl)azetidin-1-yl)pyridin-4-yl)oxy)phenyl)-2,4-dihydro-3H-1,2,4-triazol-3-one], the IC50 was less than 100 nM. Then `CC1(CNC(=O)OC(C)(C)C)CN(c2cc(Oc3ccc(-n4ncn(Cc5c(F)cccc5F)c4=O)cc3F)c(F)cn2)C1` [Example 557, tert-butyl ((1-(4-(4-(4-(2,6-difluorobenzyl)-5-oxo-4,5-dihydro-1H-1,2,4-triazol-1-yl)-2-fluorophenoxy)-5-fluoropyridin-2-yl)-3-methylazetidin-3-yl)methyl)carbamate], with less than 100 nM; and `Cc1nc(C2CCCC2)sc1Oc1ccc(-n2ncn(Cc3c(F)cccc3F)c2=O)cc1` [Example 558, 2-(4-((2-cyclopentyl-4-methylthiazol-5-yl)oxy)phenyl)-4-(2,6-difluorobenzyl)-2,4-dihydro-3H-1,2,4-triazol-3-one], with less than 100 nM. For `Cc1nc(C(N)=O)sc1Oc1ccc(-n2ncn(Cc3c(F)cccc3F)c2=O)cc1F` [Example 559, 5-(4-(4-(2,6-difluorobenzyl)-5-oxo-4,5-dihydro-1H-1,2,4-triazol-1-yl)-2-fluorophenoxy)-4-methylthiazole-2-carboxamide], the IC50 is less than 100 nM. The value for `Cc1nc(C(N)=O)sc1Oc1ccc(-n2ncn(Cc3c(F)cccc3F)c2=O)cc1` [Example 560, 5-(4-(4-(2,6-difluorobenzyl)-5-oxo-4,5-dihydro-1H-1,2,4-triazol-1-yl)phenoxy)-4-methylthiazole-2-carboxamide] was less than 100 nM; that for `Cc1nc(C#N)sc1Oc1ccc(-n2ncn(Cc3ccccc3F)c2=O)cc1F` [Example 561, 5-(2-fluoro-4-(4-(2-fluorobenzyl)-5-oxo-4,5-dihydro-1H-1,2,4-triazol-1-yl)phenoxy)-4-methylthiazole-2-carbonitrile] was less than 100 nM. On to `Cc1nc(C(N)=O)sc1Oc1ccc(-n2ncn(Cc3ccccc3F)c2=O)cc1F` [Example 562, 5-(2-fluoro-4-(4-(2-fluorobenzyl)-5-oxo-4,5-dihydro-1H-1,2,4-triazol-1-yl)phenoxy)-4-methylthiazole-2-carboxamide], for which the IC50 is less than 100 nM. In the case of `Cc1ncsc1Oc1ccc(-n2ncn(Cc3cc(F)ccc3F)c2=O)cc1F` [Example 563, 4-(2,5-difluorobenzyl)-2-(3-fluoro-4-((4-methylthiazol-5-yl)oxy)phenyl)-2,4-dihydro-3H-1,2,4-triazol-3-one], the IC50 was less than 100 nM. In the case of `Cc1nc(C(N)=O)sc1Oc1ccc(-n2ncn(Cc3cc(F)ccc3F)c2=O)cc1F` [Example 564, 5-(4-(4-(2,5-difluorobenzyl)-5-oxo-4,5-dihydro-1H-1,2,4-triazol-1-yl)-2-fluorophenoxy)-4-methylthiazole-2-carboxamide], the IC50 was less than 100 nM. For the molecule `Cc1nc(C(N)=O)sc1Oc1ccc(-n2ncn(Cc3cc(Cl)ccn3)c2=O)cc1F` [Example 565], the IC50 fell in the range of 100 to 1000 nM. On to `Cc1nc(C(N)=O)sc1Oc1ccc(-n2ncn(Cc3ccccc3C#N)c2=O)cc1F` [Example 566, 5-(4-(4-(2-cyanobenzyl)-5-oxo-4,5-dihydro-1H-1,2,4-triazol-1-yl)-2-fluorophenoxy)-4-methylthiazole-2-carboxamide], for which the IC50 is less than 100 nM. Then `Cc1nc(C(N)=O)sc1Oc1ccc(-n2ncn(Cc3c(F)cccc3C#N)c2=O)cc1F` [Example 567, 5-(4-(4-(2-cyano-6-fluorobenzyl)-5-oxo-4,5-dihydro-1H-1,2,4-triazol-1-yl)-2-fluorophenoxy)-4-methylthiazole-2-carboxamide], with less than 100 nM. Then `Cc1cnc(N2CC(C)(C(N)=O)C2)cc1Oc1ccc(-n2ncn(Cc3c(F)cccc3F)c2=O)cc1Cl` [Example 568, 1-(4-(2-chloro-4-(4-(2,6-difluorobenzyl)-5-oxo-4,5-dihydro-1H-1,2,4-triazol-1-yl)phenoxy)-5-methylpyridin-2-yl)-3-methylazetidine-3-carboxamide], with less than 100 nM; and `Cc1nc(C#N)sc1Oc1ccc(-n2ncn(Cc3c(F)cccc3F)c2=O)cc1F` [Example 569, 5-(4-(4-(2,6-difluorobenzyl)-5-oxo-4,5-dihydro-1H-1,2,4-triazol-1-yl)-2-fluorophenoxy)-4-methylthiazole-2-carbonitrile], with less than 100 nM; and `Cc1nc(C#N)sc1Oc1ccc(-n2ncn(Cc3ccccc3C#N)c2=O)cc1F` [Example 570, 5-(4-(4-(2-cyanobenzyl)-5-oxo-4,5-dihydro-1H-1,2,4-triazol-1-yl)-2-fluorophenoxy)-4-methylthiazole-2-carbonitrile], with 100 to 1000 nM. The value for `Cc1nc(C#N)sc1Oc1ccc(-n2ncn(Cc3c(F)cccc3C#N)c2=O)cc1F` [Example 571, 5-(4-(4-(2-cyano-6-fluorobenzyl)-5-oxo-4,5-dihydro-1H-1,2,4-triazol-1-yl)-2-fluorophenoxy)-4-methylthiazole-2-carbonitrile] was less than 100 nM.

As to `Cc1nc(C#N)sc1Oc1ccc(-n2ncn(Cc3cc(F)ccc3F)c2=O)cc1F` [Example 572, 5-(4-(4-(2,5-difluorobenzyl)-5-oxo-4,5-dihydro-1H-1,2,4-triazol-1-yl)-2-fluorophenoxy)-4-methylthiazole-2-carbonitrile], the IC50 is less than 100 nM.

With `Cc1nc(Br)sc1Oc1ccc(-n2ncn(Cc3cc(Cl)ccn3)c2=O)cc1F` [Example 573, 2-(4-((2-bromo-4-methylthiazol-5-yl)oxy)-3-fluorophenyl)-4-((4-chloropyridin-2-yl)methyl)-2,4-dihydro-3H-1,2,4-triazol-3-one], the IC50 lay in the range of 100 to 1000 nM.

Turning to `Cc1nc(C#N)sc1Oc1ccc(-n2ncn(Cc3cc(Cl)ccn3)c2=O)cc1F` [Example 574, 5-(4-(4-((4-chloropyridin-2-yl)methyl)-5-oxo-4,5-dihydro-1H-1,2,4-triazol-1-yl)-2-fluorophenoxy)-4-methylthiazole-2-carbonitrile], the IC50 lay within 100 to 1000 nM. Then `COC(=O)c1nc(C)c(Oc2ccc(-n3ncn(Cc4cc(Cl)ccn4)c3=O)cc2F)s1` [Example 575, methyl 5-(4-(4-((4-chloropyridin-2-yl)methyl)-5-oxo-4,5-dihydro-1H-1,2,4-triazol-1-yl)-2-fluorophenoxy)-4-methylthiazole-2-carboxylate], with 1000 to 10000 nM.

For the origin of these results see patent publication US20250179061A1 (SIRONAX LTD., priority 2022, published 2025).
